# Data reported in US20030223978A1, “Conjugates of an AMF ligand and a cytotoxic molecule for use in cancer therapy” (priority 1998, published 2003).
# Experiments:
# [1] = test system: B16-F10 metastatic murine melanoma cell line; experiment: Cell toxicity of AMF-doxorubicin conjugate; assay type: cell-based; conditions: approximately 0.3, 3, or 30 μg/ml; 3 (Expt. 1) or 4 days (Expt. 2); increasing concentrations
# Procedure: Rabbit PHI is internalized by murine NIH-3T3 fibroblasts (Benlimame et al., 1998, Molec. Biol. Cell 9: 1773-1786) and the ability of the AMF-doxorubicin conjugate to kill metastatic tumor cells was tested with the B16-F10 metastatic murine melanoma cell line. B16-F10 cells were plated at a density of 4,000 cells/cm2 and after 24 hours in culture AMF-doxorubicin conjugate was added at a concentration of approximately 0.3, 3, or 30 μg/ml (FIG. 8). After 3 (Expt. 1) or 4 days (Expt. 2) the cultures were fixed and cells remaining attached to the substrate counted. The number of cells remaining attached to the substrate is presented relative to control cells to which no AMF-doxorubicin was added.
# [2] = test system: NIH-3T3 cells; experiment: bAMF internalization, immunofluorescence and confocal microscopy; assay type: cell-based, mouse
# Procedure: For the AMF internalization studies, NIH-3T3 cells were pulsed with biotinylated AMF (˜250-500 μg/ml) and chased at 37° C. for the indicated periods of time prior to fixation by the addition of precooled (−80° C.) methanol/acetone directly to the cells. […] Disruption of clathrin coated pits and vesicles by cytoplasmic acidification was performed essentially as previously described (Heuser, J. (1989) J. Cell Biol. 108, 401-411). NIH-3T3 cells were pretreated with acidification medium (DMEM containing 5% calf serum and 50 mM MES pH 5.5) for 15 minutes at 37° C. prior to addition of bAMF in acidification medium for one hour at 37° C. To ensure that cellular acidification blocked clathrin-mediated endocytosis, Texas Red transferrin (50 μg/ml) was added to cells in regular or acidification medium for 30 minutes at 37° C. after which the cells were fixed with 3% paraformaldehyde.
# After labeling the coverslips were mounted in Airvol (Air Products and Chemicals Inc., Allentown, Pa.) and viewed in a Zeiss Axioskop fluorescent microscope equipped with a 63× Plan Apochromat objective and selective filters. Confocal microscopy was performed with the 60× Nikon Plan Apochromat objective of a dual channel BioRad 600 laser scanning confocal microscope equipped with a krypton/argon laser and the corresponding dichroic reflectors to distinguish fluorescein and Texas Red labeling. Confocal images were printed using a Polaroid TX 1500 video printer.
# [3] = biological target: T1, AMF-R (Mus musculus, UniProt Q9R049); experiment: Cell surface labeling of viable cells at 4° C. with bAMF and anti-AMF-R; assay type: binding; conditions: viable NIH-3T3 cells, confocal
# T1 construct: Confocal imaging of cell surface labeling of viable NIH-3T3 cells at 4° C. with bAMF; endogenous in cells; host or cells: NIH-3T3 fibroblasts (ATCC, a highly spread clone)
# Procedure: Cells were plated on glass cover slips 2 days prior to each experiment at a concentration of 30,000 cells/35 mm dish. For AMF-R surface labeling, the cells were incubated in DMEM minus bicarbonate supplemented with 25 mM Hepes pH 7.2 and 2.5% serum for 15 min at 4° C. prior to labeling with anti-AMF-R primary antibody or biotinylated AMF at 4° C. for 30 min. The cells were washed at 4° C. and then fixed with 3% paraformaldehyde in phosphate buffered saline (pH 7.4) supplemented with 0.1 mM Ca++ and 1 mM Mg++ (PBS/CM) for 15 min at room temperature. For caveolin labeling, after AMF-R surface labeling at 4° C. and fixation as above, the cells were permeabilized with 0.2% Triton X-100 for 10 min, then extensively washed with PBS/CM containing 1% BSA. The cells were incubated with rabbit anti-caveolin polyclonal antibodies, washed, and then incubated with FITC goat anti-rat IgM to reveal anti-AMF-R and Texas Red donkey anti-rabbit IgG to reveal anti-caveolin.
# [4] = test system: NIH-3T3 cells; experiment: bAMF internalization pathway by post-embedding electron microscopy; assay type: cell-based, mouse
# Procedure: Post-embedding immunolabeling for AMF-R was performed as previously described (Benlimame, N. et al. (1995) J. Cell Biol. 129, 459-471). Cells grown on petri dishes were rinsed and incubated at 37° C. in Ringer's solution for 15 minutes before fixing in Ringer's solution containing 2% paraformaldehyde and 0.2% glutaraldehyde for 30 minutes at 37° C. The fixed cells were rinsed in PBS/CM, scraped from the petri dish and collected by centrifugation. The cell pellet was post-fixed for 30 minutes with 1% osmium tetroxide in PBS/CM containing 1.5% potassium ferrocyanide (reduced osmium), dehydrated and embedded in LR-White resin. […] The numerical density of gold particles associated with plasma membrane, caveolae, clathrin coated pits and vesicles, smooth tubules and vesicles, and rough ER was determined. The length of the limiting membrane of the indicated organelles was measured using a Sigma-Scan measurement system and the gold particles associated with these organelles counted. […] Control labeling with non-immune rat IgM antibodies was analyzed similarly.
# To follow the endocytic pathway of AMF by electron microscopy, biotinylated AMF was internalized as described for the fluorescence studies and detected by postembedding labeling with streptavidin conjugated to 10 nm gold as described above.
# T1 sequence (Q9R049 whole entry): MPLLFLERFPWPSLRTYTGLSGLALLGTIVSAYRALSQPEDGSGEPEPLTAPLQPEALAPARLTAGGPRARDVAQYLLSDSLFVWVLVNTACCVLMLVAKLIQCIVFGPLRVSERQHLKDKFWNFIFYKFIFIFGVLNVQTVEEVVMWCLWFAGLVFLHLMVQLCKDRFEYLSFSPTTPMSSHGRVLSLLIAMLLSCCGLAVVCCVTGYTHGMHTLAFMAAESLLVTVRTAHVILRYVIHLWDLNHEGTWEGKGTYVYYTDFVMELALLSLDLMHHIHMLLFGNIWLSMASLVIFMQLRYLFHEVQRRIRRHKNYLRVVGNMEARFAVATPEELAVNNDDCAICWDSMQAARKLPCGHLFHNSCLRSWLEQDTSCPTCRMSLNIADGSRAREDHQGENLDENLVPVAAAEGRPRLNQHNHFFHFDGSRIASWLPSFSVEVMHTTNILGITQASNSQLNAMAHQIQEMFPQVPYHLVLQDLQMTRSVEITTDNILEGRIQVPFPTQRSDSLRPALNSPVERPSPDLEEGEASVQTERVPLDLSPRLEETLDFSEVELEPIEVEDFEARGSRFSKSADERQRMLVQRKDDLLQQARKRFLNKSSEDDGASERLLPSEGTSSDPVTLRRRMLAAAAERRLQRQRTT
substance,measurement,setting,value
AMF-doxorubicin: commercially available PHI (AMF) conjugated to the cellular toxin doxorubicin by glutaraldehyde mediated crosslinking,number of cells remaining attached to the substrate relative to control cells,[1],progressive toxicity
bAMF: Rabbit phosphohexose isomerase (AMF) biotinylated with NHS-LC-biotin,localization of internalized bAMF,"[2]; 1 hour at 37° C., 10-fold excess unlabeled AMF",localized only to punctate structures
same,localization of internalized bAMF,"[2]; 1 hour at 37° C., medium acidified to pH 5.5 (clathrin-mediated endocytosis disrupted)",localized to tubules which colocalize with AMF-R tubules
same,localization of internalized bAMF,"[2]; 1 hour pulse at 37° C., regular medium",localized to tubular structures which colocalize with AMF-R tubules
same,localization of internalized bAMF,"[2]; two hour pulse, chase of 2 or 4 hours",accumulation of bAMF labeling in tubular structures which colocalized with AMF-R tubules
same,colocalization of cell surface bAMF with anti-AMF-R labeling,[3],high degree of colocalization
same,localization of bAMF by streptavidin-10 nm gold,[4]; 10 minute pulse at 37° C.,localized to cell surface caveolae
same,localization of bAMF by streptavidin-10 nm gold,[4]; 30 minute pulse at 37° C.,localized to caveolae and smooth vesicles
